Source: PubChem BioAssay (NCI)
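A five-concentration, 48-hour dose response in 96-well plates underlies each endpoint, interpolated linearly between surrounding concentrations. Abbreviation: GI50, concentration required for 50% inhibition of growth. TGI is the concentration that stops growth completely.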

Legend:
Assay in all cases: DTP human tumour cell line panel, 48 h
786-0 renal = tested on: 786-0 renal
A498 renal = tested on: A498 renal
A549 NSCLC = tested on: A549 NSCLC
ACHN renal = tested on: ACHN renal
BT-549 breast = tested on: BT-549 breast
COLO 205 colon = tested on: COLO 205 colon
DU-145 prostate = tested on: DU-145 prostate
EKVX NSCLC = tested on: EKVX NSCLC
HCT-116 colon = tested on: HCT-116 colon
HCT-15 colon = tested on: HCT-15 colon
HL-60(TB) leukemia = tested on: HL-60(TB) leukemia
HOP-62 NSCLC = tested on: HOP-62 NSCLC
HOP-92 NSCLC = tested on: HOP-92 NSCLC
HS 578T breast = tested on: HS 578T breast
HT29 colon = tested on: HT29 colon
IGROV1 ovarian = tested on: IGROV1 ovarian
K-562 leukemia = tested on: K-562 leukemia
LOX IMVI melanoma = tested on: LOX IMVI melanoma
M14 melanoma = tested on: M14 melanoma
MALME-3M melanoma = tested on: MALME-3M melanoma
MCF7 breast = tested on: MCF7 breast
MDA-MB-231 breast = tested on: MDA-MB-231 breast
MOLT-4 leukemia = tested on: MOLT-4 leukemia
NCI-H226 lung = tested on: NCI-H226 lung
NCI-H23 lung = tested on: NCI-H23 lung
NCI-H460 lung = tested on: NCI-H460 lung
NCI/ADR-RES ovarian = tested on: NCI/ADR-RES ovarian
OVCAR-3 ovarian = tested on: OVCAR-3 ovarian
OVCAR-5 ovarian = tested on: OVCAR-5 ovarian
OVCAR-8 ovarian = tested on: OVCAR-8 ovarian
PC-3 prostate = tested on: PC-3 prostate
RPMI-8226 leukemia = tested on: RPMI-8226 leukemia
RXF 393 renal = tested on: RXF 393 renal
SF-268 CNS = tested on: SF-268 CNS
SF-295 CNS = tested on: SF-295 CNS
SF-539 CNS = tested on: SF-539 CNS
SK-MEL-2 melanoma = tested on: SK-MEL-2 melanoma
SK-MEL-28 melanoma = tested on: SK-MEL-28 melanoma
SK-MEL-5 melanoma = tested on: SK-MEL-5 melanoma
SK-OV-3 ovarian = tested on: SK-OV-3 ovarian
SN12C renal = tested on: SN12C renal
SNB-19 CNS = tested on: SNB-19 CNS
SNB-75 CNS = tested on: SNB-75 CNS
SR leukemia = tested on: SR leukemia
SW-620 colon = tested on: SW-620 colon
T-47D breast = tested on: T-47D breast
TK-10 renal = tested on: TK-10 renal
U251 CNS = tested on: U251 CNS
UACC-257 melanoma = tested on: UACC-257 melanoma
UACC-62 melanoma = tested on: UACC-62 melanoma
UO-31 renal = tested on: UO-31 renal
CAKI-1 renal = tested on: CAKI-1 renal
CCRF-CEM leukemia = tested on: CCRF-CEM leukemia
HCC-2998 colon = tested on: HCC-2998 colon
KM12 colon = tested on: KM12 colon
MDA-MB-435 = tested on: MDA-MB-435
NCI-H522 lung = tested on: NCI-H522 lung

CC(=O)O[C@H]1/C(=C/c2ccc(N(C)C)cc2)C[C@H]2[C@@H]3CC=C4C[C@@H](N5CCCC5)CC[C@]4(C)[C@H]3CC[C@]12C
TGI (786-0 renal): > 100 µM | TGI (A498 renal): > 100 µM | TGI (A549 NSCLC): > 100 µM | TGI (ACHN renal): > 100 µM | TGI (BT-549 breast): > 100 µM | TGI (COLO 205 colon): > 100 µM | TGI (DU-145 prostate): > 100 µM | TGI (EKVX NSCLC): > 100 µM | TGI (HCT-116 colon): > 100 µM | TGI (HCT-15 colon): > 100 µM | TGI (HL-60(TB) leukemia): > 100 µM | TGI (HOP-62 NSCLC): > 100 µM | TGI (HOP-92 NSCLC): > 100 µM | TGI (HS 578T breast): > 100 µM | TGI (HT29 colon): > 100 µM | TGI (IGROV1 ovarian): > 100 µM | TGI (K-562 leukemia): > 100 µM | TGI (LOX IMVI melanoma): > 100 µM | TGI (M14 melanoma): > 100 µM | TGI (MALME-3M melanoma): > 100 µM | TGI (MCF7 breast): > 100 µM | TGI (MDA-MB-231 breast): > 100 µM | TGI (MOLT-4 leukemia): > 100 µM | TGI (NCI-H226 lung): > 100 µM | TGI (NCI-H23 lung): > 100 µM | TGI (NCI-H460 lung): > 100 µM | TGI (NCI/ADR-RES ovarian): > 100 µM | TGI (OVCAR-3 ovarian): > 100 µM | TGI (OVCAR-5 ovarian): > 100 µM | TGI (OVCAR-8 ovarian): > 100 µM | TGI (PC-3 prostate): > 100 µM | TGI (RPMI-8226 leukemia): > 100 µM | TGI (RXF 393 renal): > 100 µM | TGI (SF-268 CNS): > 100 µM | TGI (SF-295 CNS): > 100 µM | TGI (SF-539 CNS): > 100 µM | TGI (SK-MEL-2 melanoma): > 100 µM | TGI (SK-MEL-28 melanoma): > 100 µM | TGI (SK-MEL-5 melanoma): > 100 µM | TGI (SK-OV-3 ovarian): > 100 µM | TGI (SN12C renal): > 100 µM | TGI (SNB-19 CNS): > 100 µM | TGI (SNB-75 CNS): > 100 µM | TGI (SR leukemia): > 100 µM | TGI (SW-620 colon): > 100 µM | TGI (T-47D breast): > 100 µM | TGI (TK-10 renal): > 100 µM | TGI (U251 CNS): > 100 µM | TGI (UACC-257 melanoma): > 100 µM | TGI (UACC-62 melanoma): > 100 µM | TGI (UO-31 renal): > 100 µM

Cc1ccc(S(=O)(=O)NCCN2c3nc4ccccc4cc3Sc3cc4ccccc4nc32)cc1
GI50 (786-0 renal): 1.67 µM | TGI (786-0 renal): > 45.9 µM | GI50 (A498 renal): 24.4 µM | TGI (A498 renal): > 84.9 µM | GI50 (A549 NSCLC): > 100 µM | TGI (A549 NSCLC): > 100 µM | GI50 (ACHN renal): 8.42 µM | TGI (ACHN renal): > 100 µM | GI50 (BT-549 breast): 17.4 µM | TGI (BT-549 breast): > 100 µM | GI50 (CAKI-1 renal): 13.8 µM | TGI (CAKI-1 renal): > 71.7 µM | GI50 (CCRF-CEM leukemia): > 100 µM | TGI (CCRF-CEM leukemia): > 100 µM | GI50 (COLO 205 colon): > 100 µM | TGI (COLO 205 colon): > 100 µM | GI50 (DU-145 prostate): > 100 µM | TGI (DU-145 prostate): > 100 µM | GI50 (EKVX NSCLC): > 77 µM | TGI (EKVX NSCLC): > 100 µM | GI50 (HCC-2998 colon): > 100 µM | TGI (HCC-2998 colon): > 100 µM | GI50 (HCT-116 colon): 7.11 µM | TGI (HCT-116 colon): > 100 µM | GI50 (HCT-15 colon): > 100 µM | TGI (HCT-15 colon): > 100 µM | GI50 (HL-60(TB) leukemia): > 100 µM | TGI (HL-60(TB) leukemia): > 100 µM | GI50 (HOP-62 NSCLC): 16.5 µM | TGI (HOP-62 NSCLC): 98.9 µM | GI50 (HOP-92 NSCLC): 2.19 µM | TGI (HOP-92 NSCLC): 13.3 µM | GI50 (HS 578T breast): 2.43 µM | TGI (HS 578T breast): 23.2 µM | GI50 (HT29 colon): > 100 µM | TGI (HT29 colon): > 100 µM | GI50 (IGROV1 ovarian): 7.06 µM | TGI (IGROV1 ovarian): > 100 µM | GI50 (K-562 leukemia): > 100 µM | TGI (K-562 leukemia): > 100 µM | GI50 (KM12 colon): > 100 µM | TGI (KM12 colon): > 100 µM | GI50 (LOX IMVI melanoma): > 81.7 µM | TGI (LOX IMVI melanoma): > 100 µM | GI50 (M14 melanoma): > 100 µM | TGI (M14 melanoma): > 100 µM | GI50 (MALME-3M melanoma): 23.2 µM | TGI (MALME-3M melanoma): > 100 µM | GI50 (MCF7 breast): > 100 µM | TGI (MCF7 breast): > 100 µM | GI50 (MDA-MB-231 breast): 4.61 µM | TGI (MDA-MB-231 breast): > 100 µM | GI50 (MDA-MB-435): > 100 µM | TGI (MDA-MB-435): > 100 µM | GI50 (MOLT-4 leukemia): > 100 µM | TGI (MOLT-4 leukemia): > 100 µM | GI50 (NCI-H226 lung): 64.2 µM | TGI (NCI-H226 lung): > 100 µM | GI50 (NCI-H23 lung): 13 µM | TGI (NCI-H23 lung): > 100 µM | GI50 (NCI-H460 lung): > 100 µM | TGI (NCI-H460 lung): > 100 µM | GI50 (NCI-H522 lung): 44.4 µM | TGI (NCI-H522 lung): > 100 µM | GI50 (NCI/ADR-RES ovarian): > 25.1 µM | TGI (NCI/ADR-RES ovarian): > 100 µM | GI50 (OVCAR-3 ovarian): > 26.8 µM | TGI (OVCAR-3 ovarian): > 100 µM | GI50 (OVCAR-5 ovarian): > 100 µM | TGI (OVCAR-5 ovarian): > 100 µM | GI50 (OVCAR-8 ovarian): 6.01 µM | TGI (OVCAR-8 ovarian): > 100 µM | GI50 (RXF 393 renal): 22.1 µM | TGI (RXF 393 renal): 66.3 µM | GI50 (SF-268 CNS): 11.4 µM | TGI (SF-268 CNS): > 100 µM | GI50 (SF-295 CNS): 4.04 µM | TGI (SF-295 CNS): 18.5 µM | GI50 (SF-539 CNS): 4.79 µM | TGI (SF-539 CNS): 20.5 µM | GI50 (SK-MEL-2 melanoma): > 37.4 µM | TGI (SK-MEL-2 melanoma): > 80.2 µM | GI50 (SK-MEL-28 melanoma): > 100 µM | TGI (SK-MEL-28 melanoma): > 100 µM | GI50 (SK-MEL-5 melanoma): 5.59 µM | TGI (SK-MEL-5 melanoma): > 100 µM | GI50 (SK-OV-3 ovarian): 7.82 µM | TGI (SK-OV-3 ovarian): 54.2 µM | GI50 (SN12C renal): > 100 µM | TGI (SN12C renal): > 100 µM | GI50 (SNB-19 CNS): 10.5 µM | TGI (SNB-19 CNS): 67.7 µM | GI50 (SNB-75 CNS): 1.54 µM | TGI (SNB-75 CNS): 7.84 µM | GI50 (SR leukemia): > 100 µM | TGI (SR leukemia): > 100 µM | GI50 (SW-620 colon): > 100 µM | TGI (SW-620 colon): > 100 µM | GI50 (T-47D breast): 4.54 µM | TGI (T-47D breast): > 100 µM | GI50 (TK-10 renal): 28.6 µM | TGI (TK-10 renal): > 100 µM | GI50 (U251 CNS): 4.93 µM | TGI (U251 CNS): > 89.9 µM | GI50 (UACC-257 melanoma): > 100 µM | TGI (UACC-257 melanoma): > 100 µM | GI50 (UACC-62 melanoma): 11.4 µM | TGI (UACC-62 melanoma): 51.4 µM | GI50 (UO-31 renal): > 100 µM | TGI (UO-31 renal): > 100 µM
